Data on 59 compounds can be found in the METLIN SMRT retention time set (Domingo-Almenara et al. 2019).

The data set in a line: gradient 5% acetonitrile 3 min, to 50% in 2 min, to 85% in 15 min, held 3 min, 100 µL/min. As to conditions: column: Zorbax Extend-C18 2.1 x 50 mm; eluents: water / acetonitrile, 0.1% formic acid. In outline:
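The system's dead and dwell volumes were 40 μL and 900 μL, with a Zorbax Extend-C18 column (2.1 × 50 mm, 1.8 μm) run at 100 μL/min in water and acetonitrile containing 0.1% formic acid each. Pure standards were analyzed in mixtures of ~100 molecules by HPLC–quadrupole time-of-flight mass spectrometry in positive and negative ionization mode. Retention time was assigned from computationally picked, manually inspected adduct peaks.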
On to `Cc1cc(C(=O)NCCOc2ccc3nnc(-c4ccccc4)n3n2)c(C)o1`, for which the RP-LC retention time is 698 s.

As for `CCCN1CCN(CCCNC(=O)c2c(-c3ccc(Br)s3)noc2C)CC1`, the RP-LC retention time came to 609 s.

`Cc1noc(C)c1CCC(=O)N1CCCC1CCc1ncc(C)n1CC1CC1` (centres undefined) came in with an RP-LC retention time of 662 s.

Consider `CCC(C)NC(=O)C1CCCN(C(=O)Nc2ccc(NC(=O)Nc3ccccc3)cc2)C1` (centres undefined), for which the RP-LC retention time is 730 s.

In turn, `C=CCn1c(=O)c2ccccc2n(Cc2nc(-c3cccc(C)c3)no2)c1=O` registered an RP-LC retention time of 1080 s.

Compound `CCOC(=O)c1cnc(SCC(=O)N2CCC(C(N)=O)CC2)nc1N` showed an RP-LC retention time of 602 s.

Take `Cc1nn(C(C)C(=O)NCCCN(C)c2ccccc2)c(=O)c2c(C)n(-c3ccccc3)nc12` (centres undefined): the RP-LC retention time amounted to 655 s.

`CCn1cnc(S(=O)(=O)N2CCCC(C(=O)N3CCN(c4ccc(F)cc4)CC3)C2)c1` (centres undefined) came in with an RP-LC retention time of 752 s.

The compound `Cc1ccc(NC(=O)CCCn2cccc2)cc1F` yielded an RP-LC retention time of 874 s.

On to `CCc1ccc(S(=O)(=O)N2CC=C(c3cn(C)c4ncccc34)CC2)cc1`, for which the RP-LC retention time was 1100 s.

Compound `O=C(Cn1ccc2sccc2c1=O)Nc1ccc(Br)cc1F` showed an RP-LC retention time of 832 s.

Consider `COC(=O)c1cc(S(=O)(=O)N2CCCC2C(=O)Nc2cccc(SC)c2)cn1C` (centres undefined), for which the RP-LC retention time is 909 s.

`CC(C)Cn1c(=O)c(N2CCN(C(=O)c3ccccc3Cl)CC2)nc2ccncc21` yielded an RP-LC retention time of 682 s.

For the compound `CCOc1ccc2nc(Nc3ncc4c(n3)CC(c3ccccc3)CC4=O)nc(C)c2c1` (centres undefined), the RP-LC retention time stood at 831 s.

Regarding `COc1ccc(CN2CCCN(c3cc(-c4ccccc4)[nH]n3)CC2)c(O)c1`, the RP-LC retention time was 620 s.

Consider `O=C(O)c1ccccc1-c1nc2ccccc2[nH]1`, for which the RP-LC retention time is 537 s.

As to `Cc1cc(C)c(CN2CC(CNC(=O)N3CCCC3)C3(CCOCC3)C2)c(C)c1` (centres undefined), the RP-LC retention time came out at 635 s.

`CCOC(=O)C1CCCN(C(=O)c2cc3c(=O)n(C)c(=O)n(C)c3s2)C1` (centres undefined) yielded an RP-LC retention time of 674 s.

`Cc1ccc(Nc2c(-c3ccc(N4CCOCC4)cc3)nc3cnccn23)cc1` registered an RP-LC retention time of 848 s.

Regarding `CCc1nnc2ccc(-c3noc(-c4ccc(OC)c(OC)c4)n3)cn12`, the RP-LC retention time stood at 829 s.

`Cc1nn(C)c(C)c1S(=O)(=O)N1CCC(n2c(C)cnc2-c2ccncc2)C1` (centres undefined) displayed an RP-LC retention time of 588 s.

`CCCNC(=O)N1CC(c2nc(C)no2)C2(CCOCC2)C1` (centres undefined) came in with an RP-LC retention time of 634 s.

`O=c1c2c(CO)c(-c3ccccc3)nn2ccn1Cc1cccc(F)c1` yielded an RP-LC retention time of 920 s.

Compound `O=C(c1cccc(Br)c1)N1CCN(c2cc(-c3cccs3)[nH]n2)CC1` had an RP-LC retention time of 837 s.

On to `O=C(NC1CCCC1)N1CCN(Cc2nc3cc(C(=O)N4CCCCC4)ccc3o2)CC1`, for which the RP-LC retention time turned out to be 644 s.

The compound `COc1ccccc1CCC(=O)N1CCCn2nc(-c3cccs3)cc2C1` registered an RP-LC retention time of 702 s.

The compound `Cc1ccc(C)c(NC(=O)CSc2cc(N3CCN(c4ccccc4F)CC3)ncn2)c1` showed an RP-LC retention time of 1160 s.

In turn, `COCCNC(=O)NCC(O)Cc1ccccc1` (centres undefined) yielded an RP-LC retention time of 591 s.

Consider `Cc1nn(-c2ccc(F)cc2)c2nc(N3CCCC(C(=O)NCc4ccc(F)cc4)C3)sc12` (centres undefined), for which the RP-LC retention time turned out to be 1110 s.

`CSc1ccc(-c2nc3cccc(C)n3c2Nc2ccc(C)cc2)cc1` gave an RP-LC retention time of 824 s.

Take `CCCc1c(C(=O)O)nnn1Cc1ccccc1`: the RP-LC retention time was determined as 746 s.

`CC(C)c1noc(C2CCCN(S(C)(=O)=O)CCC(=O)NCC2)n1` (centres undefined): the RP-LC retention time was 656 s.

The compound `Clc1ccc(OCCSc2nnc(-c3ccc4c(c3)OCO4)o2)cc1` had an RP-LC retention time of 1130 s.

Compound `COC(=O)c1c(C)[nH]c(C(=O)N2CCC(CC(=O)NC(c3cccs3)C(C)C)CC2)c1C` (centres undefined) yielded an RP-LC retention time of 805 s.

Turning to `CCc1nc(-c2csc(S(=O)(=O)N3CCC(C(=O)NC(C)CC)CC3)c2)no1` (centres undefined), the RP-LC retention time was determined as 854 s.

In turn, `CCCNc1cc(N2CCC(CCC(=O)Nc3ccc(OCC)cc3)CC2)ncn1` gave an RP-LC retention time of 736 s.

In the case of `O=C(Cc1ccccc1)NCC(=O)NC(C(=O)N1CCCc2ccccc21)c1ccccc1` (centres undefined), the RP-LC retention time worked out at 875 s.

In the case of `CC(C)N1CCN(S(=O)(=O)c2ccc(-c3nnc(C4CC4)o3)o2)CC1`, the RP-LC retention time turned out to be 611 s.

`CN(C)c1ccc(CNC(=O)c2nnc(-c3ccc(S(=O)(=O)N4CCCCC4)cc3)o2)cc1` had an RP-LC retention time of 754 s.

For `CCC(=O)Oc1ccc(N2C(=O)CCC2=O)cc1`, the RP-LC retention time was 671 s.

For the compound `CC1=C(c2cccc(Cl)c2)S(=O)(=O)N=C1N1CCC(NC(=O)c2ccoc2)CC1`, the RP-LC retention time amounted to 799 s.

`CN(C)c1ccc(CNC(=O)c2cc3c(=O)n(C)ccc3n2C)cc1` returned an RP-LC retention time of 579 s.

In turn, `CCOC(=O)c1ccc(NC(=O)CCc2c(-c3ccc(Cl)cc3)nc3ccccn23)cc1` returned an RP-LC retention time of 752 s.

For the compound `CCOC(=O)c1noc2ncnc(NCC3CCN(Cc4ccccc4Cl)CC3)c12`, the RP-LC retention time is 603 s.

In turn, `Cc1ccc(-c2nc(-c3ccc4c(c3)oc(=O)n4C)no2)cc1F` had an RP-LC retention time of 609 s.

In the case of `O=C(c1nnc(-c2csc(S(=O)(=O)N3CCN(c4ccccn4)CC3)c2)o1)N1CCCCC1`, the RP-LC retention time came out at 709 s.

Compound `Cc1ccc(C)c(N2CCN(c3ccnc(SCC(=O)Nc4cccc(C)c4C)n3)CC2)c1` showed an RP-LC retention time of 1000 s.

`Cc1noc(C)c1CC(=O)NCC1Cn2cccc2C(=O)N1CC(C)C` (centres undefined) registered an RP-LC retention time of 664 s.

Compound `Cc1cccc(C(=O)NCC(=O)Nc2nc3ccccc3[nH]2)c1` registered an RP-LC retention time of 631 s.

For the compound `CC(Cc1ccco1)NC(=O)C1CCN(S(=O)(=O)c2ccc3c(c2)sc(=O)n3C(C)C)CC1` (centres undefined), the RP-LC retention time was determined as 920 s.

Take `Cc1cccc(N2C(=O)CN(Cc3ccccc3C)[C@H]3CS(=O)(=O)C[C@H]32)c1`: the RP-LC retention time is 872 s.

Compound `Cn1c(N2CCC(C(=O)NCCCN3CCC(Cc4ccccc4)CC3)CC2)cc(=O)n(C)c1=O` showed an RP-LC retention time of 631 s.

As to `COc1cc(-c2nc3ncccn3c2Nc2ccc(C(C)C)cc2)ccc1O`, the RP-LC retention time was found to be 711 s.

With `O=C(c1ccc(-c2csc(C3CC3)n2)cc1)N1CCN(c2ncccn2)CC1`, the RP-LC retention time was determined as 912 s.

Regarding `COc1ccc(N2C=C(C(=O)N3CCOCC3)S(=O)(=O)c3ccc(F)cc32)cc1Cl`, the RP-LC retention time came to 762 s.

As for `Cc1ccc(C)c(NC(=O)Cn2cnc3nc(N4CCCC(C(=O)NC5CC5)C4)sc3c2=O)c1` (centres undefined), the RP-LC retention time amounted to 683 s.

Compound `CCCOc1nc2ccccc2nc1N1CCCC(C(=O)NCc2ccccc2C)C1` (centres undefined) displayed an RP-LC retention time of 1240 s.

Compound `O=C(Cn1cnc2nc(N3CCCC(C(=O)NC4CC4)C3)sc2c1=O)Nc1cccc(Cl)c1` (centres undefined) returned an RP-LC retention time of 665 s.

The compound `COc1cccc(OC)c1C(=O)Nc1nnc(SCc2nnc(-c3ccccc3C)o2)s1` came in with an RP-LC retention time of 888 s.
